Data: patent US20070161578A1, “Treatment of nonalcoholic fatty liver disease using cholesterol lowering agents and/or H3 receptor antagonist/inverse agonist” (priority 2005, published 2007)

Experiments:
[1] = test system: Diet-induced obese (DIO) mice; test: Diet-induced obese (DIO) mice with hepatic steatosis, four weeks treatment (first example); assay type: in vivo; details: ezetimibe 5 mg/kg/day, formula XIIIA 12 mg/kg/day, or both
Protocol: The mice were sacrificed and the liver weight, liver triglyceride level and liver free cholesterol content were determined for each group were determined and summarized in FIGS. 1 to 4.

Niemann-Pick type C mice = details: ezetimibe treatment; cited from earlier work
DIO mice = test: DIO C57BL/6J mice on high fat/cholesterol diet, 4 weeks ezetimibe in diet (Example 3); assay type: in vivo; parameters: liver to body weight ratio (FIG. 6), top dose group: dose or concentration left out as unconfirmed
Source text: C57BL/6J mice were fed a high fat/cholesterol diet (Research Diets, with 45% Kcal fat and 0.12% w/w cholesterol) for 7 months after weaning.

[2] = test system: Diet induced obese (DIO) mice; test: DIO mice with hepatic steatosis and fibrosis, plasma ALT after four weeks treatment (Example 2); assay type: in vivo; details: formula XIIID 9 mg/kg/day, alone or with ezetimibe 2 mg/kg/day
Protocol: Diet induced obese (DIO) mice, which had developed obesity, dyslipidemia, hepatic steatosis and fibrosis by feeding them a western diet containing 45% fat and 0.12% cholesterol for seven months, were divided into four groups and treated with nothing (control), ezetimibe (formula II) (2 mg/kg/day), the compound of formula XIIID (9 mg/kg/day) or a combination of ezetimibe (2 mg/kg/day) and compound of formula XIIID (9 mg/kg/day) for four weeks. The mice were sacrificed and the plasma alanine aminotransferase (ALT) enzyme activities, a plasma biomarker of liver injury with steatohepatitis, were determined for each group, this is summarized in FIG. 5.

[3] = after 4 weeks of ezetimibe treatment
[4] = after 4 weeks, ezetimibe-treated DIO mice compared to the control
[5] = after 4 weeks, livers from ezetimibe-treated mice
[6] = ezetimibe 1.6 and 5.3 mg/kg/day, compared to the control group

O=C1[C@H](CC[C@H](O)c2ccc(F)cc2)[C@@H](c2ccc(O)cc2)N1c1ccc(F)cc1 [ezetimibe]
effect in treating NAFLD (conclusion from FIGS. 1 to 4) [1]: effective in treating NAFLD
liver cholesteryl ester content (FIG. 3) ([1]; vs control): decrease in liver cholesteryl ester content
liver free cholesterol content (FIG. 4) ([1]; vs control): decrease in liver cholesterol content
liver triglyceride levels (FIG. 2) ([1]; vs control): decrease in liver triglyceride levels
liver weight (liver to body weight ratio, FIG. 1) ([1]; vs control): decrease in liver weight
hepatic cholesterol accumulation (Niemann-Pick type C mice): reduced hepatic cholesterol accumulation
histological abnormalities (Niemann-Pick type C mice): improved histological abnormalities
liver enzymes (Niemann-Pick type C mice): improved
HDL-C (DIO mice; [3]): not changed
LDL-C (DIO mice; [3]): significant decreases
VLDL-C (DIO mice; [3]): significant decreases
reduction of plasma triglyceride (DIO mice; [3]): 15%
reduction of total plasma cholesterol (DIO mice; [3]): 30%
liver to body weight ratio (DIO mice; [4]): significantly reduced
liver wet weight (DIO mice; [4]): significantly reduced
liver cholesteryl esters (DIO mice; [5]): significantly lower
liver free cholesterol (DIO mice; [5]): significantly lower
liver triglyceride (DIO mice; [5]): significantly lower
liver triglyceride levels (FIG. 7), across doses (DIO mice; all groups that received ezetimibe, 4 weeks): dose-dependent decrease in liver triglyceride levels
liver to body weight ratio (FIG. 6), across doses (DIO mice; ezetimibe 0.5, 1.6 and 5.3 mg/kg/day, 4 weeks): dose-dependent decrease in liver to body weight ratio
liver cholesterol content (FIG. 9) (DIO mice; [6]): significant decrease in liver cholesterol content
liver cholesteryl ester content (FIG. 8) (DIO mice; [6]): significant decrease in liver cholesteryl ester content
liver to body weight ratio (FIG. 6), top dose group (DIO mice; ezetimibe, 4 weeks): greatest decline in liver to body weight ratio
VLDL-TG production rates (DIO mice; ezetimibe-treated vs control DIO mice): comparable

CO/N=C(/c1ccccn1)C1CCN(C(=O)C2(F)CCN(Cc3ccnc(N)c3)CC2)CC1 [formula XIIID]
plasma alanine aminotransferase (ALT) enzyme activities (FIG. 5) [2]: decrease in plasma ALT
